Measurements taken from patent publication US12077503B2, “Substituted cyclic amides and their use as herbicides” (FMC CORPORATION, priority 2015, dated 2024).

What was measured:
Type in all cases: in vivo
[1] = tested on: barnyardgrass (Echinochloa crus-galli); test: Test A preemergence; conditions: Echinochloa crus-galli, pre-emergence, 240 h
In short: (§1)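 Visual injury, scored on a 0–100 scale relative to untreated controls, was recorded about 10 d after application. Treatments were a preemergence soil spray over planted seeds or a postemergence spray on plants at the one- to two-leaf stage, 2 to 10 cm tall, all in loam soil–sand blend in the greenhouse.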

Kochia (Kochia scoparia) = test: Test A postemergence; conditions: Bassia scoparia, post-emergence, 240 h, 125 g ai/ha, postemergence, visual injury rating after approximately 10 d; read-out: Kochia plant response rating (0 to 100 scale, 0 no effect, 100 complete control)
In short: as §1

[2] = tested on: ryegrass, Italian (Italian ryegrass, Lolium multiflorum); test: Test A postemergence; conditions: Lolium multiflorum, post-emergence, 240 h, 125 g ai/ha, postemergence, visual injury rating after approximately 10 d; read-out: Ryegrass, Italian plant response rating (0 to 100 scale, 0 no effect, 100 complete control)
In short: as §1

[3] = tested on: giant foxtail (Setaria faberii); test: Test A postemergence; conditions: Setaria faberi, post-emergence, 240 h, 125 g ai/ha, postemergence, visual injury rating after approximately 10 d; read-out: Foxtail, Giant plant response rating (0 to 100 scale, 0 no effect, 100 complete control)
In short: as §1

[4] = tested on: barnyardgrass (Echinochloa crus-galli); test: Test A postemergence; conditions: Echinochloa crus-galli, post-emergence, 240 h, 125 g ai/ha, postemergence, visual injury rating after approximately 10 d; read-out: Barnyardgrass plant response rating (0 to 100 scale, 0 no effect, 100 complete control)
In short: as §1

[5] = tested on: ragweed (common ragweed, Ambrosia elatior); test: Test A postemergence; conditions: Ambrosia artemisiifolia, post-emergence, 240 h, 125 g ai/ha, postemergence, visual injury rating after approximately 10 d; read-out: Ragweed plant response rating (0 to 100 scale, 0 no effect, 100 complete control)
In short: as §1

corn (Zea mays) = test: Test A postemergence; conditions: Zea mays, post-emergence, 240 h, 125 g ai/ha, postemergence, visual injury rating after approximately 10 d; read-out: Corn plant response rating (0 to 100 scale, 0 no effect, 100 complete control)
In short: as §1

[6] = tested on: wheat (Triticum aestivum); test: Test A postemergence; conditions: Triticum aestivum, post-emergence, 240 h, 125 g ai/ha, postemergence, visual injury rating after approximately 10 d; read-out: Wheat plant response rating (0 to 100 scale, 0 no effect, 100 complete control)
In short: as §1

[7] = tested on: pigweed (Amaranthus retroflexus); test: Test A postemergence; conditions: Amaranthus retroflexus, post-emergence, 240 h, 125 g ai/ha, postemergence, visual injury rating after approximately 10 d; read-out: Pigweed plant response rating (0 to 100 scale, 0 no effect, 100 complete control)
In short: as §1

[8] = tested on: Galium (catchweed bedstraw, Galium aparine); test: Test A postemergence; conditions: Galium, post-emergence, 240 h, 125 g ai/ha, postemergence, visual injury rating after approximately 10 d; read-out: Galium plant response rating (0 to 100 scale, 0 no effect, 100 complete control)
In short: as §1

[9] = tested on: blackgrass (Alopecurus myosuroides); test: Test A postemergence; conditions: Alopecurus myosuroides, post-emergence, 240 h, 125 g ai/ha, postemergence, visual injury rating after approximately 10 d; read-out: Blackgrass plant response rating (0 to 100 scale, 0 no effect, 100 complete control)
In short: as §1

[10] = tested on: sedge, umbrella (small-flower umbrella sedge, Cyperus difformis); test: Test B flooded paddy test; conditions: Cyperus difformis, Flood, 250 g ai/ha; scale of 0 to 100 where 0 is no effect and 100 is complete control; read-out: Sedge, Umbrella plant response rating
In short: (§2)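 Response scored visually against untreated controls, 0 = no effect and 100 = complete control, 13–15 d after treatment in the greenhouse. Compounds added to paddy water held 3 cm above soil surface. Treatment given at 2-leaf stage.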

[11] = tested on: barnyardgrass (Echinochloa crus-galli); test: Test B flooded paddy test; conditions: Echinochloa crus-galli, Flood, 250 g ai/ha; scale of 0 to 100 where 0 is no effect and 100 is complete control; read-out: Barnyardgrass plant response rating
In short: as §2

[12] = tested on: ducksalad (Heteranthera limosa); test: Test B flooded paddy test; conditions: Heteranthera limosa, Flood, 250 g ai/ha; scale of 0 to 100 where 0 is no effect and 100 is complete control; read-out: Ducksalad plant response rating
In short: as §2

rice (Oryra sativa) = test: Test B flooded paddy test; conditions: Oryza sativa, Flood, 250 g ai/ha; scale of 0 to 100 where 0 is no effect and 100 is complete control; read-out: Rice plant response rating
In short: as §2

COc1ccc([C@H]2CN(C)C(=O)[C@@H]2C(=O)Nc2ccccc2F)cc1OC [Compound 852]
pest or weed control at 125 g/ha ([1]; 125 g ai/ha, preemergence, 0 to 100 scale where 0 is no effect and 100 is complete control, read-out: Barnyardgrass plant response rating): 90% | pest or weed control at 500 g/ha ([1]; 500 g ai/ha, Preemergence, visual injury vs untreated controls after approximately 10 d, read-out: Barnyardgrass plant response rating (0 to 100 scale where 0 is no effect and 100 is complete control)): 90% | pest or weed control at 125 g/ha (Kochia (Kochia scoparia)): 0% | pest or weed control at 125 g/ha [2]: 0% | pest or weed control at 125 g/ha [3]: 80% | pest or weed control at 125 g/ha [4]: 90% | pest or weed control at 125 g/ha [5]: 0% | plant injury at 125 g/ha (corn (Zea mays)): 0% | plant injury at 125 g/ha [6]: 0% | pest or weed control at 125 g/ha [7]: 0% | pest or weed control at 125 g/ha [8]: 0% | pest or weed control at 125 g/ha [9]: 0% | pest or weed control at 250 g/ha [10]: 0% | pest or weed control at 250 g/ha [11]: 40% | pest or weed control at 250 g/ha [12]: 40% | pest or weed control at 250 g/ha (rice (Oryra sativa)): 0%
